These results are taken from US20110236501A1, “INJECTABLE DUAL DELIVERY ALLOGRAPH BONE/POLYMER COMPOSITE FOR TREATMENT OF OPEN FRACTURES” (Vanderbilt University, priority 2007, published 2011).

Converted amounts (≈) assume the structure as drawn. Like-named read-outs stand apart in the source and are kept apart here.

Data set [1] is described as follows: In vitro release of vancomycin from PUR. It counts as physicochemical. The method, then:
Methods: rhBMP-2 was purchased from R&D systems. V-FB was obtained by precipitation of vancomycin solution at pH 8. […] In vitro release experiment was carried out in PBS, with medium refreshed as indicated. […] The scaffolds were then tested in critical sized rat femoral segmental defects, contaminated or non-contaminated. After 4 or 8 weeks, the defects are harvested, and both the new bone formation and infection control were examined.

Data set [2] in a line: Solubility of tobramycin in polyester polyol. It counts as physicochemical. On the procedure:
Tobramycin was added as a powder to the hardener prior to reaction with the triisocyanate resin in order to minimize its reactivity with the reactive two-component polyurethane. Tobramycin's five primary amino groups otherwise cause it to react rapidly with isocyanates when in solution. Tobramycin is insoluble in polyester polyol, the primary component in the hardener; consequently the tobramycin remains in the solid phase during the chemical reaction. A loading of 8 wt-% was chosen to approximate the level of tobramycin delivered from the equivalent volume of PMMA cement beads, but higher loading can be achieved if necessary.

Another data set concerns S. aureus. To be noted: cited from earlier work.
Data set [3] is described as follows: In vitro release of BSA-FITC / protein from PUR scaffolds. It counts as physicochemical. The settings on record: added in solution, after 21 days. On the procedure:
A scaffold of the present invention was prepared by one-shot reactive liquid molding of HDIt and hardener containing polyester triol and PEG. BSA-FITC was added to the hardener component prior to mixing with HDIt. Considering that proteins incorporate groups with active hydrogens (e.g., hydroxyl groups and amines), there is a concern that the protein will react with the polyisocyanate, resulting in damage to the protein. […] To protect the protein from reacting with the polyisocyanate, BSA-FITC was lyophilized with a varying amount of glucose excipient and then added to the hardener as a powder. […] The glucose dosage plays an important role in the release profile; the presence of 0.5% and 2% glucose increased the total amount released after 21 days and increased the initial burst release. Further increasing the glucose dosage to 5% decreased the total release.
To evaluate the effect of encapsulation protein into PLGA particles on the release kinetics from PUR scaffold, small pieces of PUR scaffold incorporated with BSA-FITC powder or PLGA particles encapsulated with BSA-FITC were incubated in a-MEM containing 1% BSA under 37° C. the medium was changed as indicated in FIG. 18. The amount of BSA-FITC was determined by emission fluorescence at 530 nm after excitation at 485 nm.

Data set [4] can be described thus: In vitro release of PDGF-BB (I-125 labeling and ELISA). The data set is classed as physicochemical. The settings on record: for total release of PDGF-BB: PUR scaffold with 2 wt % glucose. The method, then: To enhance the release of PDGF-BB, 2 wt % glucose was added to the scaffolds. The release profile was monitored by two methods. In the first approach, PDGF-BB was radiolabeled with iodine-125 (I-125) and a gamma reading machine was used to monitor the release kinetics. Release of PDGF-BB was also measured by ELISA assay using the liquid releasates. Both methods yield similar release profiles (FIG. 13), characterized by a burst release on the first day. The ELISA assay detected a lower total release (around 65%, compared with around 85% for I-125 labeling method), which is possibly due to denaturation of some fraction of the released protein which cannot be detected by its antibody.
To mitigate the burst release, another strategy was adopted to achieve controlled release of PDGF-BB from polyurethane scaffolds. Heparin was bound to the surface of microparticles made from amine-terminated PLGA (average size 50 μm) using standard carbodiimide techniques. PDGF-BB was then loaded onto the particle surface through heparin binding. […] To enhance the stability of the protein on the PLGA particle surface, the particles were granulated by mixing the particles with a small amount of gelatin solution followed by forcing through a 48-mesh sieve to form 110-μm granules. The granules were then added to the hardener component before reacting with isocyanate to form PUR/G-PDGF-BB polyurethane scaffolds. The PDGF-BB release from the granules is similar to that of particles when detected by I-125 labeling (FIG. 14A), but lower when measured by ELISA (FIG. 14B).

The next data set deals with MC3T3 cells. Description: In vitro cell proliferation assay of released PDGF-BB. The data set is classed as cell-based. The settings on record: released PDGF-BB vs fresh PDGF-BB. On the procedure:
To assess the in vitro bioactivity of released PDGF-BB from the polyurethane scaffolds, releasates at day 1, 3, and 7 from PUR/PDGF-BB and PUR/G-PDGF-BB scaffolds were lyophilized and reconstituted to the same PDGF-BB concentration. After MC3T3 cells attached to the 96-well plates, the serum content in the cell culture medium was decreased from 10% to 2.5%. At the same time, the reconstituted releasates were added at dosages of 3 and 10 ng/ml. Fresh PDGF-BB (i.e., not released from the scaffolds but used directly as received from the supplier) was the positive control. Cell numbers were measured at time points of 24 and 72 h by staining the DNA and measuring fluorescence on a plate reader. […] At the 72 h time point, a dose-dependent effect was observed, although it was not evident at the 24 h time point.

Take `CN[C@H](CC(C)C)C(=O)N[C@H]1C(=O)N[C@@H](CC(N)=O)C(=O)N[C@H]2C(=O)N[C@H]3C(=O)N[C@H](C(=O)N[C@H](C(=O)O)c4cc(O)cc(O)c4-c4cc3ccc4O)[C@H](O)c3ccc(c(Cl)c3)Oc3cc2cc(c3O[C@@H]2O[C@H](CO)[C@@H](O)[C@H](O)[C@H]2O[C@H]2C[C@](C)(N)[C@H](O)[C@H](C)O2)Oc2ccc(cc2Cl)[C@H]1O` [V-FB, vancomycin free base]: the “duration of vancomycin release above the MIC for S. aureus” value is given as “up to 8 weeks” in data set [1] and “over 8 weeks” in data set [1] (listed as vancomycin).
`NC[C@H]1O[C@H](O[C@H]2[C@H](O)[C@@H](O[C@H]3O[C@H](CO)[C@@H](O)[C@H](N)[C@H]3O)[C@H](N)C[C@@H]2N)[C@H](N)C[C@@H]1O` [tobramycin]: the “solubility in polyester polyol” value in data set [2] was “insoluble”. Further, in the data set on S. aureus, the minimum bactericidal concentration is 16 µg/mL (≈ 34.2 µM) and the minimum inhibitory concentration is 4 to 8 µg/mL.
In the case of “BSA-FITC: Bone serum albumin-fluorescein isothiocyanate”, the “release of BSA-FITC” value in data set [3] was below 20%.
For “PDGF-BB: Platelet-derived growth factor-BB”, the protein release result in data set [4] (PDGF-BB added to PUR as a powder without the glucose excipient) was “negligible protein release”. Besides, the “total release of PDGF-BB” value is recorded as “around 65%” in data set [4] (ELISA) and “around 85%” in data set [4] (I-125 labeling). In addition, in the data set with MC3T3 cells, the “decreased activity compared with the positive control” value was found to be 20%.
